The source of these data is patent publication US5919682A, “Overproduction of neuronal nitric oxide synthase” (Board of Regents, University of Texas System, priority 1995, dated 1999).

Several values for one entry are separate records, joined by “and”; a condition that tells them apart may be missing. Equal values may be shown once. Entries after “also recorded” stand apart in the source; their conditions may differ.

Data set [1] is described as follows: Specific activity of nNOS (NO formation). Format: biochemical. From the text: (§1) Enzymatic activity determined by the rate of NO. formation. […] L-citrulline from [^3 H] […] For Km analysis, the concentration of [^3 H]
The target in data set [2] is T1, E. coli-expressed nNOS (Rattus norvegicus, UniProt P29476). The experiment in a line: Substrate perturbation difference spectrophotometry (spectral binding). Set-up: made in house; host or cells: E. coli BL21 co-transformed with pNOSpCW and pGroELS. Conditions: 1 mM imidazole present; assuming Kd imidazole 160 μM; read-out: spectral binding constant (KS). On the procedure: Studies were performed as described in Example 2 using 1.5 μM nNOS in the presence of 1 mM imidazole.
T1 sequence (P29476 whole entry): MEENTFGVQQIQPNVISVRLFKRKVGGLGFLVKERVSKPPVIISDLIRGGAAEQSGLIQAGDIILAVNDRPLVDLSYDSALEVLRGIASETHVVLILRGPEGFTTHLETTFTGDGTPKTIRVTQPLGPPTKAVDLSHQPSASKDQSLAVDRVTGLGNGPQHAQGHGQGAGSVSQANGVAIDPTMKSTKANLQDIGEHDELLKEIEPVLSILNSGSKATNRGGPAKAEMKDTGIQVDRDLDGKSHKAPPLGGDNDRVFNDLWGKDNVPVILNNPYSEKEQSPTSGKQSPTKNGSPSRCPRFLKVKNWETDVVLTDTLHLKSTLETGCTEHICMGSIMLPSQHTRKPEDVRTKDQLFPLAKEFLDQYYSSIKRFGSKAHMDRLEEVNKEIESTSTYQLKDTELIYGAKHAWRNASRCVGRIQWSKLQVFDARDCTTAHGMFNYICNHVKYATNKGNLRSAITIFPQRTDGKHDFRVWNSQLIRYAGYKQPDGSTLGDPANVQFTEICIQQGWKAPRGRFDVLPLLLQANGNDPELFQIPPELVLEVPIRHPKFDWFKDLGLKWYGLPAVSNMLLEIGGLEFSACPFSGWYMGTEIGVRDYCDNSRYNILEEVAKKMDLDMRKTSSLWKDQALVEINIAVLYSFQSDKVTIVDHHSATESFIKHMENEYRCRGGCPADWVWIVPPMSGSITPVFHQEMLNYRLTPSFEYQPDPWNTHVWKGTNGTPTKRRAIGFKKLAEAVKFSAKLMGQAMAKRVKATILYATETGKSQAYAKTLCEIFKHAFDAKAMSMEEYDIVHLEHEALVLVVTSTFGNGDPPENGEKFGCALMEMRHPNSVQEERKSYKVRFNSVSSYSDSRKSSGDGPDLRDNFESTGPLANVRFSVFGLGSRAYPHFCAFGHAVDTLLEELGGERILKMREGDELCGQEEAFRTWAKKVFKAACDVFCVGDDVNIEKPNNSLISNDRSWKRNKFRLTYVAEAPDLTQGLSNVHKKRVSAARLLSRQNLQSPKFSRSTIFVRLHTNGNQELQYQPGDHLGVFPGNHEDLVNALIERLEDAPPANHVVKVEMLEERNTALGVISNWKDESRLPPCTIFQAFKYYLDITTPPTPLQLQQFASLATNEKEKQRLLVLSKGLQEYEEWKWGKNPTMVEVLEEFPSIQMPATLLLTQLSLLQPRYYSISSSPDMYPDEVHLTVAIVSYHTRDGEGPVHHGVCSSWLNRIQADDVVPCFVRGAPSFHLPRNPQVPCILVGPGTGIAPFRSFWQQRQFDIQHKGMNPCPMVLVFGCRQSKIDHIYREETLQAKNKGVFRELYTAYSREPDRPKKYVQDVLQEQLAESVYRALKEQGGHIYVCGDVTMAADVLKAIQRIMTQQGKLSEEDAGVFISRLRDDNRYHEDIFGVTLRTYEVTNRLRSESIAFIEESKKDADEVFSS
(§2) Spectrophotometric methods. Absolute spectra and CO difference spectra were performed essentially as described by McMillan and Masters (1993) with the exception that all measurements were performed in buffer B and the CO difference spectra were obtained by reducing the protein and then bubbling the sample cuvette with CO. Substrate perturbation difference spectra were performed as described (McMillan and Masters, 1993), but in the presence of 1 mM imidazole to shift the entire population of nNOS to the low spin heme state. The molar protein concentration was determined based on heme content and Δε444-475 =75 mM^1 (Stuehr and Ikeda-Saito, 1992; McMillan and Masters, 1995). All spectral analyses were performed using a Shimadzu Model 2101 UV/visible dual-beam spectrophotometer.
(FIG. 2B), using the following:
apparent KS =KS (1+[Imidazole]/Kd imidazole).

Data set [3] concerns the target T1, E. coli-expressed nNOS. The experiment in a line: Absolute absorbance spectrum perturbation of nNOS. Format: binding. Also on record: made in house; host or cells: E. coli BL21 co-transformed with pNOSpCW and pGroELS. Conditions: imidazole 1 mM; arginine 2 μM. The method, then:
Studies were performed as described in Example 2 using 3.2 μM nNOS.
as §2

Data set [4] relates to human kidney 293 cell-purified nNOS. The experiment in a line: Km analysis, nNOS from human kidney 293 cells. Format: biochemical, rat. Particulars: read-out: Km for L-arginine. The method, then: as §1
These values are in excellent agreement with each other and with the Km value of 2 μM for nNOS reported by Bredt and Snyder (1990).

The subject of data set [5] is nNOS isolated from rat brain. Particulars: read-out: Km for L-arginine; reported by Bredt and Snyder (1990); cited from earlier work.
The target of a further data set is nNOS. Conditions: assumed value from McMillan and Masters, 1993, Wolff et al., read-out: Kd imidazole; cited from earlier work.
The target of data set [6] is T1, E. coli-expressed nNOS. Conditions: purified nnos, 2 min. The method, then:
Enzymatic activity determined by the rate of NO. formation. The rate of nitric oxide formation was measured using both the hemoglobin capture assay (Kelm and Schrader, 1990), performed at 25° C. as described by Sheta, et al. (1994), and the method of Bredt and Snyder (1990), which monitors the formation of [^3 H] L-citrulline from [^3 H] […] Each reaction mixture, containing 0.5 mg of enzyme, was incubated at 25° C. for 2 minutes (over which time the reaction is linear). For Km analysis, the concentration of [^3 H]
Enzymatic activity of purified E. coli-expressed enzyme.

For data set [7], the target named is T1, E. coli-expressed nNOS. Nature of the data set: [3H]-NNA binding to purified E. coli-expressed nNOS by direct titration. Set-up: made in house; host or cells: E. coli BL21 co-transformed with pNOSpCW and pGroELS. On the procedure:
Studies were performed as described in Example 4 using 10 pmole nNOS. Symbols are: circles, semi-purified E. coli-expressednNOS eluted from a 2'5'-ADP-Sepharose 4B column in the absence of BH4 during purification; triangles, purified E. coli-expressed nNOS purified in the presence of BH4 as described in Example 1; open symbols represent data from assays performed in the absence of additional BH4; filled symbols represent data from assays performed in the presence of 10 μM BH4.
The incubation was stopped by aspiration of the sample through the PVDF membrane. The wells were washed twice with 200 μl of 50 mM Tris, pH 7.6, air-dried for 10 minutes, 25 μl scintillation cocktail was added, and samples were counted.
Binding of N^ω -nitro-arginine to purified E. coli-expressed enzyme.

In the case of “nNOS from JM109: nNOS co-expressed with groEL and groES in E. coli JM109, heavily proteolyzed upon cell lysis”, in data set [1] (nNOS from E. coli JM109 co-expressing groEL and groES, heavily proteolyzed), the “activity relative to nNOS purified from 293 cells” value was 1%.

As to `N=C(N)NCCC[C@H](N)C(=O)O` [L-arginine], on E. coli-expressed nNOS [2], the Kd is ~717 nM and 717 nM. Further, on E. coli-expressed nNOS [3], the “shift of maximum heme absorbance at 400 nm” value is “completely to the high spin form (peak at 395 nm)”. Besides, the Km in data set [4] was 1.9 µM and ~2 µM; in data set [5], 2 µM and ~2 µM.

As to `c1c[nH]cn1` [imidazole], the Kd at nNOS is 160000 nM. Further, the “shift of maximum heme absorbance at 400 nm” value at E. coli-expressed nNOS [3] is on record as “low spin form (peak at 428 nm)”.

In the case of `C[C@H](O)[C@H](O)[C@H]1CNc2nc(N)[nH]c(=O)c2N1` [BH4, (6R)-5, 6, 7, 8 tetrahydro-L-biopterin], at E. coli-expressed nNOS [6], the “stimulation of turnover by BH4, fraction 1” value is given as 2.7 fold and the “stimulation of turnover by BH4, fraction 2” value is 2.3 fold.

With `N=C(NCCC[C@H](N)C(=O)O)N[N+](=O)[O-]` [NNA, N^ω -nitro-L-arginine], the Bmax on E. coli-expressed nNOS [7] (Fraction 1, (+) BH4) was found to be 0.54 pmol NNA/pmol nNOS; at E. coli-expressed nNOS [7] (Fraction 1, (-) BH4), 0.078 pmol NNA/pmol nNOS; on E. coli-expressed nNOS [7] (Fraction 2, (+) BH4) it was 0.69 pmol NNA/pmol nNOS; at E. coli-expressed nNOS [7] (Fraction 2, (-) BH4) it was 0.67 pmol NNA/pmol nNOS. Also, at E. coli-expressed nNOS [7] (fraction 1 (pre-BH4)), the “binding of NNA to nNOS fraction 1” value was “binds significantly to E. coli-expressed nNOS fraction 1 only in the presence of added BH4”. On E. coli-expressed nNOS [7] (fraction 2 (65% BH4-saturated)), the “binding of NNA to nNOS fraction 2” value is given as “equally well in the presence or absence of added BH4”.

“nNOS: rat neuronal NOS overexpressed in E. coli BL21 with chaperonins groEL and groES”: in data set [1], the “specific activity compared with mammalian (kidney 293) cell-expressed nNOS” value is given as “equal to or exceeding the activity of kidney 293 cell-derived enzyme; also recorded: at least as high as that of kidney 293 cell-expressed enzyme; also recorded: at least equal to or greater than the mammalian cell-expressed nNOS”. Moreover, the “specific activity / turnover” value in data set [1] (E. coli-expressed nNOS, both hemoglobin capture and citrulline assays) came to 450 nmol/min/mg.

As usually defined, the Km is the substrate concentration at which the rate is half of its maximum.
